# Measurements taken from article PMC10510102, “Efficient Ligand Discovery Using Sulfur(VI) Fluoride Reactive Fragments” (ACS Chemical Biology, 2023).
# Biological target: T1, BCL6 (Homo sapiens, UniProt P41182, C67R/C84N/C8Q)
# T1 construct: hBCL6-Flag-6H-Avi 3Cmut (5–129) produced as part of the GSK/GenScript collaboration; Flag (C); 6H (His6) (C); Avi (C)
# Assay: Identification of site(s) of covalent modification by tandem MS
# Details: 2 μM BCL6, 100 μM SF, 4 °C, 24 h; trypsin digest LC-MS/MS
# Method: The top hits from the SF screen with BCL6 represented two distinct chemotypes: meta-substituted benzamides (2f and 2g) and azetidine aryl ethers (2h and 2i). These were resynthesized and purified for follow-up studies. […] Tyr57 has previously been targeted by a BCL6 inhibitor (14, TMX-2164); however, the targeting of His115 is a novel modification; these residues are located on opposite sides of the binding site of previously reported BCL6 inhibitors (11–14) (see Figure 5b).
# 7. BCL6 – site of binding studies and iterative screen
# 7.1. Identification of the site(s) of covalent modification by tandem MS (BCL6)
# The (resynthesized and purified) SF hits (2f–i) were plated into a Greiner 384 PP F-bottom plate from a 10 mM source in DMSO. Purified BCL6 diluted from original stock into a buffer made up of HEPES (pH 7.5, 25 mM) and NaCl (50 mM) in distilled MS-grade water (50 µL per well) was subsequently added across the plate. Final concentrations: 2 µM protein; 100 µM SF. The plate was sealed, centrifuged (1 min, 1000 rpm), incubated at 4 °C for 24 h, and 15 µL aliquots were subsequently removed and analyzed by intact protein LC-MS.
# The remaining samples (1 μg) were separated by SDS-PAGE to remove excess unbound compound. Gels were stained with colloidal Comassie InstantBlue and bands corresponding to BCL6 were excised, reduced with 10 mM TCEP (65 °C, 30 mins), and alkylated with 10 mM iodoacetamide (r.t., 30 mins, dark). Samples were digested with trypsin (Promega) 1:10 E:S (37 °C, 16 h) in 100 mM ammonium bicarbonate. After removal of the supernatant, peptides were extracted using acetonitrile. Combined supernatants were concentrated in a SpeedVac centrifuge and acidified (0.1% formic acid, 0.05% trifluoroacetic acid) prior to injection into the LC-MS/MS system.
# Digested samples were injected on an Easy-nLC 1200 UHPLC system (Thermo Scientific). The nanoLC was interfaced to an Orbitrap Fusion Lumos Mass Spectrometer (Thermo Scientific). Tryptic peptides were loaded on a 2 cm × 75 µm Acclaim PepMap 100 C18 trapping column (Thermo Scientific) and separated on a 25 cm × 75 μm, 2 µm particles, PepMap C18, 2 μm particle column (Thermo Scientific) using a 50 min gradient of 2–38% acetonitrile, 0.2% formic acid and a flow of 300 nL/min. LC-MS/MS based peptide sequencing was performed by data dependent analysis (DDA). Full MS 350–1600 Da at 120,000 resolution, MS AGC target 1e6, MS Maximum IT 50 ms, followed by MS/MS using a 3 sec. cycle time, stepped collision energy mode at 25, 29 and 32 CE%, Isolation window 1.6 m/z, fixed first mass 145 m/z, 15,000 orbitrap resolution, MS/MS AGC target 1e5 and MS/MS Maximum IT 200 ms. Alternatively, samples were analyzed by Parallel Reaction Monitoring (PRM) targeting precursor ions relative to the modified peptides. […]
row,SMILES,site of covalent modification
1,NC(=O)c1ccccc1OC1CN(C(=O)Cc2ccc(S(=O)(=O)F)cc2)C1 [2i],His115
2,CN(C)C(=O)Nc1cccc(CNC(=O)Cc2ccc(S(=O)(=O)F)cc2)c1 [2f],Tyr57
3,CC(=O)Nc1cccc(CNC(=O)Cc2ccc(S(=O)(=O)F)cc2)c1 [2g],Tyr57
4,O=C(Cc1ccc(S(=O)(=O)F)cc1)N1CC(Oc2ccc(F)c(F)c2)C1 [2h],His115
